Common to all, as to assay type: cell-based, Schistosoma mansoni
The test system of series [1] is S. mansoni schistosomulae. Briefly: Phenotypic primary screen assay on schistosomulae (phenotype; viability by methylene blue dye exclusion). Conditions: for Viability (%) / Phenotype: three-day-old schistosomulae, 10 μM, 24 h; for Viability (%): calculated 5 days post compound exposure; for Phenotype: estimated 5 days post compound exposure. Here is the method:
Puerto Rican strain Biomphalaria glabrata snails infected with S. mansoni were kindly provided by Dr. Fred Lewis (Biomedical Research Institute and BEI Resources, MD, USA). Schistosomulae were obtained by exposing six to eight weeks-old snails to continuous light for 2 h at 32 °C. […] At this point, animals with internal dark granulations and with no observable body contraction/relaxation cycles were considered dead.
Schistosomulae were monitored under a stereo microscope (SMZ1270, Nikon). Phenotypic observations were made by analyzing schistosomulae, 24 h after drug addition to assess any immediate effect and five days post-compound exposure to observe long-term impacts on both the movement and overall body shape in comparison to control animals exposed to DMSO only.

For series [2], the system named is S. mansoni schistosomulae. As to the kind of experiment: Motility assay on schistosomulae (pixel displacement, relative to DMSO control). Conditions: for Fractional motility: schistosomulae. Here is the method:
Puerto Rican strain Biomphalaria glabrata snails infected with S. mansoni were kindly provided by Dr. Fred Lewis (Biomedical Research Institute and BEI Resources, MD, USA). Schistosomulae were obtained by exposing six to eight weeks-old snails to continuous light for 2 h at 32 °C. The resulting suspension of cercaria was then mechanically transformed as described ([Lewis, 2001]) and cultured in Opti-MEM/antibiotics (Thermo Fisher Scientific, Waltham, MA) containing 100 μg/mL streptomycin and 100 units/ml penicillin supplemented with 5% fetal bovine serum (FBS; Thermo Fisher). Parasite cultures were incubated at 37 °C with 5% CO2 for at least 10 days with no apparent loss of viability. At this point, animals with internal dark granulations and with no observable body contraction/relaxation cycles were considered dead.
(§1) Schistosomulae (200/well) and adult parasites (unpaired worms) were maintained in 300 μL OPTI-MEM with 5% dialyzed FBS (without antibiotics) and exposed to compounds at 1 and 10 μM for 24 h. A kinetic assay consisting of 1, 3, 6 and 12 h incubation times was performed on selected hits by motility monitoring using a stereo microscope (SMZ1270, Nikon) for adults and an inverted microscope for schistosomulae (eclipse TE2000-U, Nikon) connected to a monochrome camera (DS-Qi2, Nikon) for image acquisition. Images were recorded at a rate of 10 frames/s for a period of 1 min and videos were analyzed using ImageJ software (version 1.41, NIH, USA). Parasite movement quantification and data analysis protocols were applied using the pixel displacement method ([Patocka et al., 2014]; [Rashid et al., 2015]) and compared to control parasites treated with DMSO. Parasites were then washed several times in Opti-MEM, 5% FBS and incubated up to an additional three days (schistosomulae) or five days (adult worms) at 37 °C, 5% CO2 and motility was recorded as described above.

In the next series the test system is S. mansoni adult worms. As to the kind of experiment: Motility assay on adult parasites (pixel displacement, relative to DMSO control). Conditions: 10 μM; for motility phenotype in words: adults, long-term after washout; for Fractional motility: secondary screen. Here is the method:
Adult parasites were collected from 40 day-old female CD1 mice (Charles River) previously inoculated by the tail infection method ([Lewis, 2001]). Six weeks post-infection, mice were sacrificed, and adult worms extracted after perfusion of in the hepatic portal vein and mesenteric venules ([Lewis, 2001]). Animal procedures were reviewed and approved by the Facility Animal Care Committee of McGill University (Protocol No. 3346) and were conducted in accordance with the guidelines of the Canadian Council on Animal Care.
as §1

Where [3] appears, read: secondary screen, 24h exposure, read at D1, 1 µM.
Where [4] appears, read: secondary screen, 24h exposure, read at D1, 10 µM.
[5] abbreviates: secondary screen, 24h exposure, read at D5, 1 µM.
Where [6] appears, read: secondary screen, 24h exposure, read at D5, 10 µM.

On to `c1cc(-c2cnn3cc(-c4ccc(N5CCNCC5)cc4)cnc23)c2cccnc2c1` [LDN-212854], for which, in series [1], the “Viability (%)” value is 0%. In addition, the Phenotype entry in series [1] is listed as “dark, granulated”. The Fractional motility was 9.63 in series [2] (1h exposure, read at D1, 10 µM); -0.87 in series [2] (1h exposure, read at D5, 10 µM); -0.97 in series [2] (3h exposure, read at D1, 10 µM); -0.97 in series [2] (3h exposure, read at D5, 10 µM); -0.98 in series [2] (6h exposure, read at D1, 10 µM); -0.92 in series [2] (6h exposure, read at D5, 10 µM). For the same molecule, the Fractional motility was 3.02 in series [2] (setting [3]); 11.26 in series [2] (setting [4]); -0.46 in series [2] (setting [5]); -0.80 in series [2] (setting [6]); 0.29 in the series with S. mansoni adult worms (D1, Female adult worms); 0.78 in the series on S. mansoni adult worms (D1, Male adult worms). For the same molecule, the Fractional motility in the series with S. mansoni adult worms (D5, Female adult worms) is -0.84; with S. mansoni adult worms (D5, Male adult worms) it was -0.87. Moreover, the “motility in extended assay with reduced incubation times, in words” value in series [2] (three-day old schistosomulae, incubation 1 h, 3 h, 6 h) was “significant and sustained hypomotility”. Also, the “motility phenotype in words” value with S. mansoni adult worms is reported as “Significant hypomotility”.
As to `CCCCCCCCCCCCCCCCn1cc[n+](Cc2ccccc2)c1C.[I-]` [NH125], the “Viability (%)” value in series [1] is listed as 18%. Besides, the Phenotype entry in series [1] is given as “big, dark, granulated”. The Fractional motility is 1.58 in series [2] (setting [3]); -0.66 in series [2] (setting [4]); -0.08 in series [2] (setting [5]); -0.55 in series [2] (setting [6]); -0.74 in the series with S. mansoni adult worms (D1, Female adult worms); 0.53 with S. mansoni adult worms (D1, Male adult worms). In addition, the Fractional motility is -0.89 in the series with S. mansoni adult worms (D5, Female adult worms) and -0.87 in the series with S. mansoni adult worms (D5, Male adult worms). The “motility phenotype in words” value in the series with S. mansoni adult worms is recorded as “Significant hypomotility”.
Turning to `C/C(=N\NC(=S)N1CCC1)c1ccccn1` [NSC319726], the “Viability (%)” value in series [1] is listed as 68%. For the same molecule, the Phenotype entry in series [1] is “dark, granulated”. The Fractional motility is on record as 0.0562 in series [2] (setting [3]); 0.59 in series [2] (setting [4]); -0.75 in series [2] (setting [5]); -0.93 in series [2] (setting [6]); -0.13 in the series with S. mansoni adult worms (D1, Female adult worms); -0.16 in the series with S. mansoni adult worms (D1, Male adult worms). Further, the Fractional motility in the series on S. mansoni adult worms (D5, Female adult worms) is on record as -0.84; in the series on S. mansoni adult worms (D5, Male adult worms) it was -0.08.
Take `CC(=O)c1cc([N+](=O)[O-])c(Sc2ccc(F)cc2F)s1` [P22077]: in series [1], the “Viability (%)” value was 5%. Besides, the Phenotype result in series [1] was “dark, granulated”. The Fractional motility is 0.71 in series [2] (1h exposure, read at D1, 10 µM); 0.10 in series [2] (1h exposure, read at D5, 10 µM); 3.24 in series [2] (3h exposure, read at D1, 10 µM); -0.09 in series [2] (3h exposure, read at D5, 10 µM); 10.22 in series [2] (6h exposure, read at D1, 10 µM); -0.30 in series [2] (6h exposure, read at D5, 10 µM). Also, the Fractional motility in series [2] (setting [3]) is on record as -0.36; in series [2] (setting [4]) it was 2.27; in series [2] (setting [5]), -0.61; in series [2] (setting [6]), -0.98; in the series on S. mansoni adult worms (D1, Female adult worms) it was -0.33; in the series on S. mansoni adult worms (D1, Male adult worms), -0.12. Moreover, the Fractional motility is -0.88 in the series on S. mansoni adult worms (D5, Female adult worms) and -0.79 in the series on S. mansoni adult worms (D5, Male adult worms). In the series on S. mansoni adult worms, the “motility phenotype in words” value is “severely paralyzed adults”.
For the molecule `Cc1cnc(-c2cc(N3CCN(C(=O)CCS(C)(=O)=O)CC3)ncc2Cl)c(C)c1` [PF-5274857], in series [1], the “Viability (%)” value was 96.5%. For the same molecule, the Phenotype result in series [1] is recorded as “granulated”. For the same molecule, the Fractional motility in series [2] (setting [3]) is -0.26; in series [2] (setting [4]), 0.15; in series [2] (setting [5]), -0.49; in series [2] (setting [6]), 4.02; in the series with S. mansoni adult worms (D1, Female adult worms), -0.02; in the series with S. mansoni adult worms (D1, Male adult worms), -0.62. The Fractional motility with S. mansoni adult worms (D5, Female adult worms) is given as -0.13; with S. mansoni adult worms (D5, Male adult worms) it was -0.56.
For `O=C(/C=C/c1ccc2ccccc2n1)c1ccncc1` [PFK15], in series [1], the “Viability (%)” value is reported as 63%. In series [1], the Phenotype result is recorded as “dark, granulated”. Also, the Fractional motility is reported as 1.64 in series [2] (setting [3]); 3.41 in series [2] (setting [4]); -0.50 in series [2] (setting [5]); -0.80 in series [2] (setting [6]); -0.30 with S. mansoni adult worms (D1, Female adult worms); 4.15 in the series with S. mansoni adult worms (D1, Male adult worms). The Fractional motility in the series on S. mansoni adult worms (D5, Female adult worms) is listed as -0.50; in the series with S. mansoni adult worms (D5, Male adult worms) it was 0.98.
For `N#CSc1cc(SC#N)c(N)nc1N` [PR-619], the “Viability (%)” value in series [1] is 54,5%. In series [1], the Phenotype result was “dark, granulated”. Besides, the Fractional motility in series [2] (setting [3]) is on record as 2.00; in series [2] (setting [4]), 0.27; in series [2] (setting [5]), 0.18; in series [2] (setting [6]), -0.76; in the series with S. mansoni adult worms (D1, Female adult worms), 0.35; in the series with S. mansoni adult worms (D1, Male adult worms) it was 0.35. The Fractional motility is on record as -0.88 in the series on S. mansoni adult worms (D5, Female adult worms) and -0.93 with S. mansoni adult worms (D5, Male adult worms). This molecule also showed a hypomotility in the series on S. mansoni adult worms (adult male and female parasites, long-term) of 94.5%. Besides, the “motility phenotype in words” value in the series on S. mansoni adult worms is “severely paralyzed adults”.
As to `NS(=O)(=O)C#Cc1ccccc1` [Pifithrin-μ], the “Viability (%)” value in series [1] is 0%. Moreover, the Phenotype entry in series [1] is recorded as “big , dark, granulated”. In addition, the Fractional motility in series [2] (setting [3]) was 1.37; in series [2] (setting [4]) it was 2.61; in series [2] (setting [5]) it was -0.80; in series [2] (setting [6]) it was -1.00; with S. mansoni adult worms (D1, Female adult worms) it was -0.0347; in the series on S. mansoni adult worms (D1, Male adult worms), -0.36. The Fractional motility in the series with S. mansoni adult worms (D5, Female adult worms) is -0.90; in the series with S. mansoni adult worms (D5, Male adult worms), -0.23.
In the case of `O=C(Nc1ccccc1-c1cn2c(CN3CCNCC3)csc2n1)c1cnc2ccccc2n1` [SRT1720], in series [1] (24 h incubation, five days), the “effect on viability of schistosomulae in words” value is “lethal”. Further, the “Viability (%)” value in series [1] is given as 0%. Further, the Phenotype result in series [1] is reported as “dark, granulated”. For the same molecule, the Fractional motility in series [2] (setting [3]) is recorded as 20.54; in series [2] (setting [4]), -1.00; in series [2] (setting [5]) it was 0.36; in series [2] (setting [6]), -1.00; with S. mansoni adult worms (D1, Female adult worms), 3.42; with S. mansoni adult worms (D1, Male adult worms), 2.50. Moreover, the Fractional motility was 0.62 in the series with S. mansoni adult worms (D5, Female adult worms) and 1.34 in the series on S. mansoni adult worms (D5, Male adult worms).
Take HO-3867: the “Viability (%)” value in series [1] is given as 42,5%. The Phenotype entry in series [1] is recorded as “dark, granulated”. In addition, the Fractional motility in series [2] (1h exposure, read at D1, 10 µM) is reported as 1.63; in series [2] (1h exposure, read at D5, 10 µM), -0.56; in series [2] (3h exposure, read at D5, 10 µM), -0.41; in series [2] (6h exposure, read at D1, 10 µM), -0.37; in series [2] (6h exposure, read at D5, 10 µM) it was -0.0245; in series [2] (setting [3]), 1.34. In addition, the Fractional motility in series [2] (setting [4]) is reported as 2.56; in series [2] (setting [5]) it was 1.27; in series [2] (setting [6]) it was -0.58; in the series with S. mansoni adult worms (D1, Female adult worms) it was 0.32; with S. mansoni adult worms (D1, Male adult worms) it was 0.13; in the series with S. mansoni adult worms (D5, Female adult worms) it was -0.89. In the series on S. mansoni adult worms (D5, Male adult worms), this molecule had a Fractional motility of -0.84. In addition, in the series on S. mansoni adult worms, the “motility phenotype in words” value was “Significant hypomotility”.

Source of the values: publication PMC7284125, “Identification of annotated bioactive molecules that impair motility of the blood fluke Schistosoma mansoni” (International Journal for Parasitology: Drugs and Drug …, 2020).
